Like-named read-outs stand apart in the source and are kept apart here. One block for each molecule: values may come before it.
How the values were obtained:
[1] = type: in vitro ADME, Elaphae obsolata (black rat snake); conditions: n = 5; for Flux of 2,3-dihydro-5-hydroxy-6-(o-hydroxymethylcinnamyl)benzofuran ± SD / % of 2,3-dihydro-5-hydroxy-6-(o-hydroxymethylcinnamyl)benzofuran delivered in 48 hrs ± SD: 1% (w/w) drug with 15% (w/w) enhancer; for Flux of 2,3-dihydro-5-hydroxy-6-(o-hydroxymethylcinnamyl)benzofuran ± SD: 32°
Procedure: The transport of 2,3-dihydro-5-hydroxy-6-(o-hydroxymethylcinnamyl)benzofuran, through shed snake skin, which has been reported to be a good model for human stratum corneaum in terms of thickness, compositional features, structure and permeability, was measured in the presence of decyl, dodecyl and oleyl esters of L-pyroglutamic acid used as penetration enhancers.
Because of the poor aqueous solubility of 2,3-dihydro 5-hydroxy-6-(o-hydroxymethylcinnamyl)benzofuran (<0.0002 mg/ml at 32°), 20% propyleneglycol in isotonic pH 7.2 phosphate buffer was used as the receptor medium. […] A weighed amount of a petrolatum ointment (30-35 mg) containing 1% (w/w) of 2,3-dihydro-5-hydroxy-6-(o-hydroxymethylcinnamyl)benzofuran with or without 15% (w/w) of the permeation enhancer was applied to 1.76 cm^2 area of shed skin of adult Elaphae obsolata (black rat snake), and held between the donor and receptor compartments of a diffusion cell by O-rings. […] The diffusion cells were maintained at 32°±1° C. The amount of drug diffused into the receptor chamber was measured by HPLC using acetonitrile-water (2:3) at a flow rate of 1 ml/min as mobile phase, a C18 column and a UV detector set at […]. The results (Table IV below) are averages of five diffusion cells for each experiment.

Aqueous solubility = type: physicochemical; conditions: water, at 32°
[2] = Permeation enhancement of enalapril, clonidine and acyclovir using pyroglutamic esters; type: in vitro ADME, Elaphae obsolete (black rat snake); conditions: for % delivered in 48 hrs ± SD: no enhancer; for Flux of acyclovir ± SD / % of acyclovir delivered in 48 hrs ± SD: acyclovir with enhancer; for Flux of clonidine ± SD / % of clonidine delivered in 48 hrs ± SD: clonidine with enhancer; for Flux of enalapril ± SD / % of enalapril delivered in 48 hrs ± SD: enalapril with enhancer
Procedure: (§1) In the examples given below, the permeation enhancement was determined using an in vitro diffusion cell procedure. The molts of adult Elaphae obsolete (black rat snake) was used as the model for stratum corneum membrane (R. Ibuki, Ph.D. Thesis, University of Kansas, 1985). The shed snake skin has great similarities to human skin in terms of thickness, composition of constituents and structure and has been proposed as the most suitable model for human stratum corneum for permeability studies.
Glass diffusion cells consisting of a donor and receptor cells separated by the shed snake skin membrane were assembled using circular O-ring joints held together by spring clamps. The exposed membrane surface area of the diffusion cell measured 1.8 cm^2. Before being mounted in the diffusion cell approximately 25 mg of an ointment containing the therapeutic agent and the penetration enhancer was carefully applied to the membrane and was spread over the desired area. The receptor side was filled with approximately 8.5 ml of buffer solution consisting of 1.5×10^-1 M NaCl, 5×10^-4 NaH2 PO4 and 2.0×10^-4 M Na2 HPO4 adjusted to pH 7.2 with NaOH. The diffusion cell was immersed vertically in a water bath maintained at 32°±1° C. The receptor cell was stirred constantly with a magnetic stirrer. To determine the amount of compound penetrated through the snake skin membrane from the upper chamber, 0.2 ml samples were withdrawn at varying intervals from the receptor chamber using a syringe. An equal amount of fresh buffer was replenished during sampling. The concentration of drug penetrated in each diffusion cell was measured using high pressure liquid chromatography. […]

[3] = tested on: skin (dorsal surface) of fuzzy rats; experiment: Skin Irritation Study (modified Draize, 3-day occlusive dermal application); type: in vivo; parameters: key: modified Draize index, 0-8 (erythema 0-4 + edema 0-4); conditions: 3 DAY occlusion, 50 mg over 2 cm^2, maximum 8; for Primary Irritation Index (PII), T0-T72 hrs: irritation index ± SD (n)
Procedure: Fuzzy rats (Temple University) 150 to 200 g were used to study the dermal irritancy as the neat compounds. Test preparations (50 mg) were applied to circular gauze pads 1 mm thick and 16 mm in diameter, and affixed to the animals' dorsal surface with occlusive adhesive film (Adhesive Plaster for Patch Test, Kanebo, Ltd., Osaka, Japan). The occlusive dressings were removed after 3 or 7 days. Treated skin areas were then evaluated according to a modified Draize scoring method, and the irritation index was evaluated for each test site. The first or "primary irritation index" (PII) was an average value reflecting irritation both immediately after dressing removal, and 72 hours later. The "secondary irritation index" (SII) was determined 7 days after dressing removal. The maximum possible PII or SII was 8 with a total possible score of 4 erythema, and a total possible score of 4 for edema. A PII or SII less than or equal to 2 indicated a mild irritant, a PII or SII greater than 2 but less than or equal to 6 indicated a moderate irritant, and a PII greater than 6 indicated a severe irritant as shown in Table 1 below: […]

Rat plasma hydrolysis = type: in vitro ADME; conditions: 37° C., decanol generated, by GC, read-out: t 1/2 of enzymatic hydrolysis in rat plasma
Procedure: Freshly prepared rat plasma (2 ml) was mixed with decyl pyroglutamate (0.6 mg) and was maintained at 37° C. Aliquots were removed at different time intervals and vortexed with heptane (1 ml) containing dodecanol as an internal standard. The decanol produced by enzymatic hydrolysis was assayed by gas chromatography on a 6'×2 mm (id) column packed with OV-101 (methylsilicone) on gas chrom Q (100-120 mesh), programmed from 125° to 175° C.

[4] = In vitro diffusion cell permeation through shed snake skin (Example 4); type: in vitro ADME, Elaphae obsolete (black rat snake); conditions: 32°; for flux of indomethacin: pH 7.2
Procedure: as §1
Glass diffusion cells consisting of a donor and receptor cells separated by the shed snake skin membrane were assembled using circular O-ring joints held together by spring clamps. The exposed membrane surface area of the diffusion cell measured 1.8 cm^2. Before being mounted in the diffusion cell approximately 25 mg of an ointment containing the therapeutic agent and the penetration enhancer was carefully applied to the membrane and was spread over the desired area. The receptor side was filled with approximately 8.5 ml of buffer solution consisting of 1.5×10^-1 M NaCl, 5×10^-4 NaH2 PO4 and 2.0×10^-4 M Na2 HPO4 adjusted to pH 7.2 with NaOH. The diffusion cell was immersed vertically in a water bath maintained at 32°±1° C. The receptor cell was stirred constantly with a magnetic stirrer. To determine the amount of compound penetrated through the snake skin membrane from the upper chamber, 0.2 ml samples were withdrawn at varying intervals from the receptor chamber using a syringe. An equal amount of fresh buffer was replenished during sampling. The concentration of drug penetrated in each diffusion cell was measured using high pressure liquid chromatography. The results reported for each experiment are the average values from 5 replicate diffusion cells.
The ointments used for the experiments contained varying concentrations of the drug and penetration enhancing agent. The drug was dispersed in the enhancer and this was then mixed with white petrolatum USP using a vortex mixer around 55° C. The ointments were kept in a water bath at 32°±1° C. for 1 day before use in in vitro studies. See Tables II and III below for the results of penetration enhancement effects.

[5] = weight ratio of enhancer/indomethacin 15.0
[6] = dodecyl pyroglutamate as enhancer, weight ratio of enhancer/drug 15
[7] = dodecyl pyroglutamate, weight ratio of enhancer/drug 0 (no enhancer)

SMILES: OCc1ccccc1C=CCc1cc2c(cc1O)CCO2 [2,3-dihydro-5-hydroxy-6-(o-hydroxymethylcinnamyl)benzofuran, reference compound]
Flux ± SD ([1]; 1% (w/w) drug, no enhancer): 0.19 μg/cm^2 /hr | % delivered in 48 hrs ± SD ([1]; 1% (w/w) drug, no enhancer, 48 hrs): 4.24 ± 0.53% | solubility (Aqueous solubility): < 0.2 µg/mL

SMILES: Nc1nc2c(ncn2COCCO)c(=O)[nH]1 [Acyclovir, reference compound]
% delivered in 48 hrs ± SD ([2]; acyclovir): not detectable

SMILES: CCCCCCCCCCCCN1CCCCCC1=O [Azone, reference compound]
Primary Irritation Index (PII), T0-T72 hrs [3]: 4.0 ± 1.9 | Secondary Irritation Index (SII) at 7 days [3]: 0

SMILES: Clc1cccc(Cl)c1N=C1NCCN1 [Clonidine, reference compound]
% delivered in 48 hrs ± SD ([2]; clonidine, n = 12): 1.1 ± 0.3%

SMILES: CCCCCCCCCCOC(=O)[C@@H]1CCC(=O)N1 [Decyl pyroglutamate, Decyl Pyroglutamate]
half-life (Rat plasma hydrolysis): 1.7 min | Primary Irritation Index (PII), T0-T72 hrs [3]: 0.9 ± 1.1 | Secondary Irritation Index (SII) at 7 days [3]: 0 | flux of indomethacin [4, 5]: 0.477 μg/cm^2 /hr | Flux of 2,3-dihydro-5-hydroxy-6-(o-hydroxymethylcinnamyl)benzofuran ± SD [1]: 0.70 ± 0.06 μg/cm^2 /hr | % of 2,3-dihydro-5-hydroxy-6-(o-hydroxymethylcinnamyl)benzofuran delivered in 48 hrs ± SD ([1]; 48 hrs): 16.1 ± 3.0% | Flux of acyclovir ± SD [2]: 0.063 ± 0.01 μg/cm^2 /hr | % of acyclovir delivered in 48 hrs ± SD [2]: 0.25 ± 0.03% | Flux of clonidine ± SD [2]: 0.31 ± 0.13 μg/cm^2 /hr | % of clonidine delivered in 48 hrs ± SD [2]: 8.1 ± 2.1% | Flux of enalapril ± SD [2]: 0.15 ± 0.01 μg/cm^2 /hr | % of enalapril delivered in 48 hrs ± SD [2]: 4.3 ± 0.9%

SMILES: CCCCCCCCCCCCOC(=O)[C@@H]1CCC(=O)N1 [Dodecyl pyroglutamate]
Primary Irritation Index (PII), T0-T72 hrs [3]: 0 | Secondary Irritation Index (SII) at 7 days [3]: 0 | flux of indomethacin [4, 5]: 0.630 μg/cm^2 /hr | Flux of 2,3-dihydro-5-hydroxy-6-(o-hydroxymethylcinnamyl)benzofuran ± SD [1]: 0.61 ± 0.04 μg/cm^2 /hr | % of 2,3-dihydro-5-hydroxy-6-(o-hydroxymethylcinnamyl)benzofuran delivered in 48 hrs ± SD ([1]; 48 hrs): 13.4 ± 1.5% | Flux of acyclovir ± SD [2]: 0.072 ± 0.04 μg/cm^2 /hr | % of acyclovir delivered in 48 hrs ± SD [2]: 0.26 ± 0.15% | Flux of clonidine ± SD [2]: 0.63 ± 0.21 μg/cm^2 /hr | % of clonidine delivered in 48 hrs ± SD [2]: 13.2 ± 0.6% | Flux of enalapril ± SD [2]: 0.51 ± 0.09 μg/cm^2 /hr | % of enalapril delivered in 48 hrs ± SD [2]: 9.9 ± 2.7%

SMILES: CC(C)=CCCC(C)=CCCC(C)=CCOC(=O)[C@@H]1CCC(=O)N1 [Farnesyl pyroglutamate]
Primary Irritation Index (PII), T0-T72 hrs [3]: 0 | Secondary Irritation Index (SII) at 7 days [3]: 0 | flux of indomethacin [4, 5]: 0.317 μg/cm^2 /hr

SMILES: C[C@]12CCC(=O)C=C1CC[C@@H]1[C@@H]2[C@@H](O)C[C@@]2(C)[C@H]1CC[C@]2(O)C(=O)CO [Hydrocortisone]
flux of drug [4, 6]: 0.338 μg/cm^2 /hr | flux of drug [4, 7]: Not detectable

flux of indomethacin ([4]; no enhancer): non-detectable
SMILES: COc1ccc2c(c1)c(CC(=O)O)c(C)n2C(=O)c1ccc(Cl)cc1 [Indomethacin, indomethacin]

SMILES: CCCCCCCC/C=C\CCCCCCCCOC(=O)[C@@H]1CCC(=O)N1 [Oleyl pyroglutamate]
Primary Irritation Index (PII), T0-T72 hrs [3]: 0.1 ± 0.3 | Secondary Irritation Index (SII) at 7 days [3]: 0 | flux of indomethacin [4, 5]: 0.450 μg/cm^2 /hr | Flux of 2,3-dihydro-5-hydroxy-6-(o-hydroxymethylcinnamyl)benzofuran ± SD [1]: 0.95 ± 0.09 μg/cm^2 /hr | % of 2,3-dihydro-5-hydroxy-6-(o-hydroxymethylcinnamyl)benzofuran delivered in 48 hrs ± SD ([1]; 48 hrs): 21.7 ± 1.1% | Flux of clonidine ± SD [2]: 0.26 ± 0.15 μg/cm^2 /hr | % of clonidine delivered in 48 hrs ± SD [2]: 4.4 ± 1.4% | Flux of enalapril ± SD [2]: 0.92 ± 0.22 μg/cm^2 /hr | % of enalapril delivered in 48 hrs ± SD [2]: 18.7 ± 5.4%

SMILES: CC(C)NCC(O)COc1cccc2ccccc12 (centres unmarked) [Propranolol]
flux of drug [4, 6]: 7.410 μg/cm^2 /hr | flux of drug [4, 7]: 3.680 μg/cm^2 /hr

— patent publication US4970206A, “Pyroglutamic acid esters used as dermal penetration enhancers for drugs” (Merck & Co., Inc., priority 1989, dated 1990)
